These results are taken from US20250064841A1, “Aqueous Composition Comprising Avermectins” (HWI Pharma Services GmbH, priority 2022, published 2025).

The test system of data set [1] is rats. Kind of data set: Histopathological examination of nostrils, nasal cavity and pharynx (local tolerability). Type of data set: in vivo. The note with it: dose as high as 12.5 mg/kg in rats, intranasal. An excerpt:
Subsequent to the last blood sampling animals were sacrificed by induction of a deep anesthesia with isoflurane followed by rapid exsanguinations. Then both nostrils and nasal cavity including pharynx were collected from all animals and preserved in neutral buffered formaldehyde (4%) for histopathological examination. Afterwards, tissues for the histopathological investigation were trimmed and embedded in paraplast®. The slides were HE (hematoxylin and eosin)-stained and histopathologically examined.

For data set [2], the system named is SARS-Covid 2 virus. The note with it: cited Monash lab experiments; cited from earlier work.
Data set [3] can be described thus: Particle size distribution (PSD) by laser diffraction, Malvern Mastersizer 2000/3000. In kind it is physicochemical. How it is done:
The mean particle size distribution is preferably obtained by laser diffraction. In a laser diffraction measurement, a laser beam passes through a dispersed particulate sample and the angular variation in intensity of the scattered light is measured. Large particles scatter light at small angles relative to the laser beam and small particles scatter light at large angles. The angular scattering intensity data is then analyzed to calculate the size of the particles that created the scattering pattern using the Mie theory of light scattering. The particle size is reported as a volume equivalent sphere diameter. The folded optical design in the Mastersizer 3000 (from Malvern Panalytical), which was in particular used for the measurements, provides a particle size range from 10 nm up to 3.5 mm using a single optical measurement path. The Mastersizer 3000 uses a sequential combination of measurements with red and blue light sources to measure across the entire particle size range.
The pharmaceutically active agent is grinded in a mortar/pestle system to the appropriate particles size prior to its use. Afterwards the Particles Size Distribution (PSD) is measured using a Malvern Master Sizer 3000. The samples after grinding are stored in tightly closed brown glass bottles.
The pharmaceutically active agent is micronised to the desired particles size using a jet mill (e.g. from SpiraNo 100 from MCKO, Germany) and screw dosing system (e.g. ZD 9 from Three-Tec Ltd., Seon, Switzerland). The diameter of the injection nozzle is selected at about 6 mm, the milling gas pressure about 2 bar, the milling temperature is about 18° C. The duration of the process is about 5-10 minutes depending on the particle size of the non-micronised active agent. Afterwards the PSD is measured with a Malvern Master Sizer 3000. The samples after micronisation are stored in tightly closed brown glass bottles.
Afterwards the PSD is measured with a Malvern Master Sizer 3000. In addition, the Zetapotential, an index for the stability of the multiparticulate suspensions is measured using a Zeta Sizer (e.g. Nano ZS) from Malvern Instruments (Dynamic Laser diffraction).
In some embodiments, the PSD of the pharmaceutically active agent, provided for the preparation of its multiparticulate suspension according to procedure 1 and procedure 2 (grinded/micronised), was measured using a Malvern Mastersizer 2000 or 3000 (in water as dispersion medium, stirrer speed 1500 rpm, Mie presentation) to give the following results:
In some embodiments, the PSD of the pharmaceutically active agent in multiparticulate suspension prepared according to procedure 3 (wet ball milling with Delta Vita 1), procedure 4 (wet ball milling Getzmann/Frewitt), procedure 5 (bulk microsuspension) and procedure 6 (final product) was measured using a Malvern Mastersizer 2000 or 3000 (in water as dispersion medium, stirrer speed 1500 rpm, Mie presentation).

Regarding ivermectin, the “tolerability of the active ingredient” value in data set [1] was “well tolerated”. In addition, the “activity against SARS-Covid 2 virus” value in data set [2] is listed as “active”.
With ivermectin [05KB21.HM00155], in data set [3] (API batch after grinding), the D10 was 2.02 μm, the D50 was found to be 6.89 μm and the D90 was found to be 32.0 μm.
As for ivermectin [05KB21.HM00170-], in data set [3] (API batch after micronisation), the D10 stood at 0.97 μm, the D50 was 2.22 μm and the D90 came out at 4.35 μm.
